Results from patent publication US20060160848A1 (priority 2002, published 2006).
Read-outs that look alike come from different tables or passages of the source.

Key:
[1] = system: mouse hepatocytes
[2] = system: mouse hepatocytes; assay: Crotyl alcohol toxicity in isolated mouse hepatocytes (LDH leakage); details: 500 μM crotyl alcohol; for protection against crotyl alcohol toxicity by other hydrazines: 1-100 μM hydrazine, 1-3 hours
[3] = system: mouse hepatocytes; assay: cells; details: Hepatocyte, 1 h
[4] = system: mouse liver; assay: Adduct-trapping in mouse liver proteins (Western blot, immunohistochemistry); type: in vivo; details: for immunohistochemical detection of hydralazine-stabilized acrolein adducts in liver sections: 4 hours after 300 μmol/kg i.p., hydralazine given with allyl alcohol, hydrazone given alone
[5] = system: mice; assay: Allyl alcohol hepatotoxicity in mice (plasma SDH, GPT, hepatic GSH)
[6] = system: PC-12 cells; assay: Allylamine cytotoxicity in PC-12 cells (MTT)
[7] = system: mouse hepatocytes; remark: listed apart in the source
[8] = target: T1, acrolein-modified BSA (Bos taurus, UniProt P02769); assay: Cell-free immunoassay for adduct-breaking on acrolein-pretreated BSA; type: biochemical, bovine; details: for adduct-breaking activity (acrolein-lysine adducts in BSA): BSA pretreated with 1 mM acrolein 20 min, 50, 250 and 500 μM test compound, 30 min at 37° C.
T1 construct: a model protein (BSA, bovine serum albumin); from tissue; host or cells: bovine serum (from the protein's name only)

[9] = system: mouse hepatocytes; assay: Toxicity of smoke extract in mouse hepatocytes (LDH leakage); type: cell-based; details: 50 μM smoke-derived acrolein equivalents; 25, 50 and 100 μM drug; up to 180 min
[10] = pH 7
[11] = system: mouse hepatocytes; remark: listed apart in the source
[12] = target: bovine pancreas ribonuclease A (Bos taurus, UniProt P61823); details: 3.2 mM acrolein; 0.3 to 3 mM hydralazine
[13] = system: mouse hepatocytes; details: 15 min, 3 mM hydralazine alone or 0.5 mM acrolein + 0.3 to 3 mM hydralazine
[14] = target: acrolein-premodified BSA (Bos taurus, UniProt P02769); details: 1 mM acrolein, then 50 to 500 μM hydralazine 30 min
[15] = system: mouse hepatocytes; remark: listed apart in the source
[16] = hypertensive human subjects, 50 mg oral dose; cited from earlier work
[17] = system: mouse hepatocytes; details: 0.5 mM acrolein; 0.3 to 3 mM hydralazine
[18] = Sequestering of crotonaldehyde from buffered solution at 37° C. (HPLC); details: equimolar scavenger, up to 30 minutes
[19] = read-out: PC50 (concentration producing a 50% decrease in LDH leakage)
[20] = read-out: PC50 (concentration affording 50% reduction in cell killing)
[21] = 200 vs 100 μmol/kg hydralazine, allyl alcohol 90 mg/kg, 60 minutes
[22] = allyl alcohol 90 mg/kg i.p., 4 hours, estimated from dose-response
[23] = hydralazine 200 μmol/kg i.p., allyl alcohol 90 mg/kg

T1 sequence (P02769 25-607): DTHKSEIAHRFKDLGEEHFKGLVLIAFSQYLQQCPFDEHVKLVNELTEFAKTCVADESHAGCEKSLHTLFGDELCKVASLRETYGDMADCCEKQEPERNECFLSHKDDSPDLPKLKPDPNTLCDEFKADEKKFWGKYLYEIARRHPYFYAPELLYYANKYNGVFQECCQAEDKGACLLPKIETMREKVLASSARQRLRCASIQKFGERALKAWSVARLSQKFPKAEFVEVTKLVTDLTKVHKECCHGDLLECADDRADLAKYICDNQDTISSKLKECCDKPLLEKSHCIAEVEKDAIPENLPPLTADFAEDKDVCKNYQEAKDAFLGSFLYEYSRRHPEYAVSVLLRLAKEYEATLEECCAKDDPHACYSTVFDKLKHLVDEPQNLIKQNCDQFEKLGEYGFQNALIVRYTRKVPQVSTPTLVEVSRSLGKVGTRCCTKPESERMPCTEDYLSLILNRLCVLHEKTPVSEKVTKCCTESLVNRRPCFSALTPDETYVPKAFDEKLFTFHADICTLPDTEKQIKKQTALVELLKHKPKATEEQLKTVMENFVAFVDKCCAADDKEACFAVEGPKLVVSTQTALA
Chain of bovine pancreas ribonuclease A (P61823 27-150): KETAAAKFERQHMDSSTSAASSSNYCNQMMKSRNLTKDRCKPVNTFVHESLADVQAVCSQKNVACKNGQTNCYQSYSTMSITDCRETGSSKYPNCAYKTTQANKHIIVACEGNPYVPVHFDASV
Chain of acrolein-premodified BSA (P02769 25-607): as the sequence (P02769 25-607) above

Molecule: 1,1-dimethylhydrazine
- EC50 [1, 19]: > 100 µM

Molecule: NN(c1ccccc1)c1ccccc1 [1,1-diphenylhydrazine]
- protection against crotyl alcohol toxicity by other hydrazines [2]: best protection
- EC50 [3, 19]: 2 ± 0.01 µM

Molecule: c1ccc(NNc2ccccc2)cc1 [1,2-diphenylhydrazine]
- EC50 [3, 19]: 19 ± 2.6 µM

Molecule: C=C/C=N/Nc1nncc2ccccc12 [(1E)-acrylaldehyde 1-[1-phthalazinyl]-hydrazone]
- immunohistochemical detection of hydralazine-stabilized acrolein adducts in liver sections [4]: no immunorecognition was evident

Molecule: c1ccc(Nc2ccc(Nc3ccccc3)cc2)cc1 [N,N′-Diphenyl-p- phenylenediamine, N,N′-Diphenyl-p-phenylenediamine]
- EC50 [3, 19]: 4 ± 1.3 µM

Molecule: CCCCNC [N-methylbutylamine]
- EC50 [3, 19]: 6 ± 2.2 µM

Molecule: C=CCO [allyl alcohol]
- cell death induced ([1]; mouse): 100%
- fatalities ([5]; 90 mg/kg): no fatalities
- decrease in hepatic GSH stores ([5]; 90 mg/kg i.p., 4 hours): 65%
- elevation of plasma GPT activity over controls ([5]; 90 mg/kg i.p., 4 hours): 24 fold
- elevation of plasma SDH activity over controls ([5]; 90 mg/kg i.p., 4 hours): 30 fold
- mortality ([5]; 100 mg/kg): 30%

Molecule: C=CCN [allylamine]
- EC50 ([6]; Rattus norvegicus, PC-12, 24 h, read-out: concentration producing 50% cell death): ~45 µM

Molecule: Nc1ccccc1 [aniline]
- EC50 [3, 19]: 61 ± 20 µM

Molecule: NCc1ccccc1 [benzylamine]
- EC50 [3, 19]: > 100 µM

Molecule: NNCc1ccccc1 [benzylhydrazine]
- protection against crotyl alcohol toxicity by other hydrazines [2]: very poor cytoprotection
- EC50 [3, 19]: 37 ± 1.8 µM

Molecule: c1ccc2c(c1)[nH]c1ccccc12 [carbazole]
- EC50 [3, 19]: 40 ± 12 µM

Molecule: C/C=C/CO [crotyl alcohol]
- cell death induced ([2]; by 3 hours): 100%

Molecule: NC1CCCCC1 [cyclohexylamine]
- EC50 [3, 19]: > 100 µM

Molecule: O=P1(N(CCCl)CCCl)NCCCO1 (stereo not shown) [cyclophosphamide]
- concentration producing complete cell death ([7]; 18-hr incubation): ≥ 250 µM

Molecule: C1CCC(NC2CCCCC2)CC1 [dicyclohexylamine]
- EC50 [3, 19]: 59 ± 11 µM

Molecule: NNc1nnc(NN)c2ccccc12 [dihydralazine]
- adduct-breaking activity (acrolein-lysine adducts in BSA) [8]: reducing adducts below detectable levels
- protection against crotyl alcohol toxicity (LDH leakage) ([2]; co-incubated up to 3 hours, 1-100 μM): approximately twice as effective as hydralazine
- cell viability restored to ([6]; 45 μM allylamine, 24 hr, approximately 1 μM dihydralazine and higher, allylamine alone about 40% of controls): approximately 80%
- EC50 [3, 20]: 5.2 ± 1.5 µM
- EC50 [3, 19]: 13 ± 0.29 µM
- attenuation of LDH leakage caused by smoke extract [9]: completely attenuating LDH leakage at all concentrations examined
- acrolein removed from solution [10]: ~92%
- attenuation of allyl alcohol toxicity (LDH leakage) [1]: strongly attenuated the toxicity of allyl alcohol
- protection against allyl alcohol toxicity (LDH leakage) [1]: approximately twice as protective as hydralazine
- effect on cyclophosphamide-induced LDH leakage [7]: attenuated the toxicity of cyclophosphamide

Molecule: CC(C)NC(C)C [diisopropylamine]
- EC50 [3, 19]: 66 ± 15 µM

Molecule: c1ccc(Nc2ccccc2)cc1 [diphenylamine]
- EC50 [3, 19]: 3 ± 1.2 µM

Molecule: NNc1nncc2ccccc12 [hydralazine]
- time acrolein adducts retained susceptibility to cleavage by hydralazine ([8]; BSA + 1 mM acrolein 15-180 min, then 2 mM hydralazine 30 min): at least 30 minutes
- adduct-breaking activity (acrolein-lysine adducts in BSA) [8]: diminished the intensity of acrolein adducted-BSA in a concentration-dependent manner
- adduct-trapping in cell proteins ([11]; 100 μM allyl alcohol 25 min, then 5 to 50 μM hydralazine 30 min): intense, concentration-dependent adduct-trapping
- increase in band intensity (densitometry) ([11]; 37, 40 and 43 kDa proteins, hydralazine 4 to 10 μM, postadduction phase): 12- to-200 fold
- acrolein-lysine adducts in RNase A, added at 30 minutes [12]: abolished the levels of acrolein-lysine adducts
- effect on cross-linked RNase A, added at 120 minutes [12]: incapable of cleaving crosslinked RNase A
- inhibition of RNase A cross-linking, added at 30 minutes [12]: strongly inhibited formation of crosslinked RNase A
- intensity of acrolein adduct-containing protein bands [13]: much lower than that seen in control cells
- intensity of acrolein adduct-containing protein bands ([13]; listed as Hydralazine): decreasing levels of adducted proteins below control values
- adduct-trapping in PC12 cell proteins (Western blot) ([6]; 100 μM hydralazine + 80 or 100 μM allylamine): intense adduct-trapping reactions
- protection against allylamine toxicity, added after 4 hour prior exposure ([6]; 100 μM hydralazine, 20-100 μM allylamine): also protected
- protection against allylamine toxicity, concurrent exposure ([6]; 100 μM hydralazine, 20-100 μM allylamine, overnight): clear protection
- elevation in signal intensity, 26 kDa protein [4, 21]: 2.6 fold
- elevation in signal intensity, 31 kDa protein [4, 21]: 2.4 fold
- adduct-trapping in liver proteins (Western blot) ([4]; 60 minutes after allyl alcohol 90 mg/kg + hydralazine 100 μmol/kg): strong adduct-trapping
- immunohistochemical detection of hydralazine-stabilized acrolein adducts in liver sections [4]: intense adduct-trapping
- EC50 [3, 20]: 8.3 ± 4 µM
- EC50 [3, 19]: 18 ± 0.81 µM
- acrolein removed from solution [10]: approximately 82%
- adduct-trapping in acrolein-premodified BSA [14]: strong adduct-trapping
- protection against pentenal toxicity ([15]; 1 mM pentenal, 3 hours): protection was most efficient for pentenal toxicity
- concentration achieving complete protection against propargyl alcohol toxicity ([15]; 1 mM propargyl alcohol, 3 hours, highest concentration used): 100 µM
- concentration achieving complete protection against MDA toxicity ([15]; 10 mM MDA, 12 to 18 hours, highest concentration used): 100 µM
- peak plasma level [16]: ~2 µM
- attenuation of allyl alcohol toxicity (LDH leakage) [1]: strongly attenuated the toxicity of allyl alcohol
- protection against allyl alcohol toxicity (LDH leakage) [1]: inhibited this toxicity in a concentration dependent manner
- effect on cyclophosphamide-induced LDH leakage [7]: attenuated the toxicity of cyclophosphamide
- cytoprotection against acute acrolein toxicity (LDH leakage) [17]: afford cytoprotection
- effect on allyl alcohol-induced changes in plasma SDH and GPT activities ([5]; allyl alcohol 90 mg/kg i.p. + hydralazine 300 μmol/kg i.p., 4 hours): almost totally abolishing
- dose affording half-maximal protection against liver injury (GPT) [5, 22]: 80 µmol/kg
- dose affording half-maximal protection against liver injury (SDH) [5, 22]: 160 µmol/kg
- effect on hepatic GSH depletion caused by allyl alcohol ([5]; allyl alcohol 90 mg/kg, hepatoprotective doses up to 300 μmol/kg): had no effect upon the hepatic GSH depletion
- effect on plasma SDH levels ([5]; allyl alcohol 100 mg/kg i.p. + hydralazine 100 μmol/kg i.p., 4 hours): did not alter the levels of SDH
- decrease in plasma SDH activity ([5]; allyl alcohol 100 mg/kg i.p. + hydralazine 200 and 300 μmol/kg i.p., 4 hours): 75 to 90%
- hepatoprotection (plasma SDH), 30 minute delay [5, 23]: hepatoprotective efficacy was diminished
- hepatoprotection (plasma SDH), co-administered or 20 minute delay [5, 23]: strongly hepatoprotective

Molecule: NNc1nccc2ccccc12 [hydrazinoisoquinoline, 1-hydrazinoisoquinoline]
- EC50 [3, 19]: 6 ± 0.14 µM

Molecule: NNc1ccccn1 [hydrazinopyridine, 2-hydrazinopyridine]
- EC50 [3, 19]: 40 ± 6.1 µM

Molecule: NNc1ncnc2ccccc12 [hydrazinoquinazoline, 4-hydrazinoquinazoline]
- EC50 [3, 19]: 10 ± 0.05 µM

Molecule: NNc1ccc2ccccc2n1 [hydrazinoquinoline, 2-hydrazinoquinoline]
- EC50 [3, 19]: 11 ± 0.44 µM

Molecule: NCCCC[C@H](N)C(=O)O [lysine]
- acrolein removed from solution [10]: approximately 13%

Molecule: CON [methoxyamine]
- adduct-breaking activity (acrolein-lysine adducts in BSA) [8]: effects were most evident at the top concentration studied
- EC50 [3, 20]: 9000 ± 1800 µM
- EC50 [3, 19]: 9000 ± 1800 µM
- acrolein removed from solution [10]: around 40%

Molecule: NNc1cccc2ccccc12 [naphthylhydrazine]
- EC50 [3, 19]: 7 ± 0.19 µM

Molecule: Nc1ccccc1O [o-aminophenol]
- EC50 [3, 19]: 18 ± 3.2 µM

Molecule: Nc1ccc(O)cc1 [p-aminophenol]
- EC50 [3, 19]: 20 ± 8.5 µM

Molecule: Oc1ccccc1 [phenol]
- EC50 [3, 19]: 48 ± 12 µM

Molecule: NNc1ccccc1 [phenylhydrazine]
- EC50 [3, 19]: 8 ± 0.28 µM

Molecule: CCCC(C(=O)OCCN(CC)CC)(c1ccccc1)c1ccccc1 [proadifen]
- effect on cyclophosphamide-induced LDH leakage [7]: abolished the cyclophosphamide-induced increase in LDH leakage

Molecule: Cc1ncc(CO)c(CN)c1O [pyridoxamine]
- adduct-breaking activity (acrolein-lysine adducts in BSA) [8]: lacked adduct-breaking potency
- EC50 [3, 20]: > 10000 µM
- EC50 [3, 19]: > 10000 µM

Molecule: O=C(O)c1ccccc1O [salicylic acid]
- EC50 [3, 19]: 59 ± 11 µM

Molecule: Sc1ccccc1 [thiophenol]
- EC50 [3, 19]: > 100 µM

Molecule: aminoguanidine
- adduct-breaking activity (acrolein-lysine adducts in BSA) [8]: lacked adduct-breaking potency
- acrolein removed from solution [10]: approximately 4%
- EC50 [1, 20]: > 10000 µM
- EC50 [1, 19]: > 10000 µM

Molecule: carnosine
- adduct-breaking activity (acrolein-lysine adducts in BSA) [8]: lacked adduct-breaking potency
- ability to sequester crotonaldehyde from solution [18]: slightly more effective at removing crotonaidehyde from solution than pyridoxamine
- acrolein removed from solution [10]: approximately 20%
- EC50 [1, 20]: > 10000 µM
- EC50 [1, 19]: > 10000 µM
